Experimental data: ChEMBL document CHEMBL1681733, “Synthesis and evaluation of [(1R)-1-amino-2-(2,5-difluorophenyl)ethyl]cyclohexanes and 4-[(1R)-1-amino-2-(2,5-difluorophenyl)ethyl]piperidines as DPP-4 inhibitors” (Bioorg Med Chem Lett, 2011)

Columns and labels:
Dipeptidyl peptidase 2 = Dipeptidyl peptidase 2 (Homo sapiens, UniProt Q9UHL4); test: Inhibition of QPP
Dipeptidyl peptidase 4 = Dipeptidyl peptidase 4 (Homo sapiens, UniProt P27487)
Prolyl endopeptidase FAP = molecular target: T1, Prolyl endopeptidase FAP (Homo sapiens, UniProt Q12884); test: Inhibition of FAP
T1 sequence (Q12884 whole entry): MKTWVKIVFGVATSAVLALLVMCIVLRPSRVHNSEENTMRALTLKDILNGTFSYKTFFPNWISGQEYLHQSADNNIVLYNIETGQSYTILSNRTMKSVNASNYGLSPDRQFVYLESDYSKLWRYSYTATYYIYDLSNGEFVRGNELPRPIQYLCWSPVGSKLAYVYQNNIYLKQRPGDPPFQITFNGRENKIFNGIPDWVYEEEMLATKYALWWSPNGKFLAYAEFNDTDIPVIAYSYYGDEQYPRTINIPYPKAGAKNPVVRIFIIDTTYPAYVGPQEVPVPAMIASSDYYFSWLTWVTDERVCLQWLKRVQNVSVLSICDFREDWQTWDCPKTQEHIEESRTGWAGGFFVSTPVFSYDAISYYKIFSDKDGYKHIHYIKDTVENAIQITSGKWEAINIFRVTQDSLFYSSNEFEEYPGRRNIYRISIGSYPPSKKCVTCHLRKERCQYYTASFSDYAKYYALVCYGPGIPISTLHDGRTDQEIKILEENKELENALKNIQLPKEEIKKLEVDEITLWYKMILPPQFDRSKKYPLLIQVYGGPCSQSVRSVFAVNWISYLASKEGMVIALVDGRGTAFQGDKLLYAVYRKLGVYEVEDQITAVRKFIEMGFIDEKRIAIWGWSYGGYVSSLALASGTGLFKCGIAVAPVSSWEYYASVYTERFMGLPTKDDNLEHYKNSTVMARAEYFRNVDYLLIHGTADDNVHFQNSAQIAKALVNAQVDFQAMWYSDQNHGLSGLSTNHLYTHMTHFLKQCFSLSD

Dipeptidyl peptidase 8 = Dipeptidyl peptidase 8 (Homo sapiens, UniProt Q6V1X1); test: Inhibition of DPP8
Sequence of Dipeptidyl peptidase 8 (Q6V1X1 whole entry): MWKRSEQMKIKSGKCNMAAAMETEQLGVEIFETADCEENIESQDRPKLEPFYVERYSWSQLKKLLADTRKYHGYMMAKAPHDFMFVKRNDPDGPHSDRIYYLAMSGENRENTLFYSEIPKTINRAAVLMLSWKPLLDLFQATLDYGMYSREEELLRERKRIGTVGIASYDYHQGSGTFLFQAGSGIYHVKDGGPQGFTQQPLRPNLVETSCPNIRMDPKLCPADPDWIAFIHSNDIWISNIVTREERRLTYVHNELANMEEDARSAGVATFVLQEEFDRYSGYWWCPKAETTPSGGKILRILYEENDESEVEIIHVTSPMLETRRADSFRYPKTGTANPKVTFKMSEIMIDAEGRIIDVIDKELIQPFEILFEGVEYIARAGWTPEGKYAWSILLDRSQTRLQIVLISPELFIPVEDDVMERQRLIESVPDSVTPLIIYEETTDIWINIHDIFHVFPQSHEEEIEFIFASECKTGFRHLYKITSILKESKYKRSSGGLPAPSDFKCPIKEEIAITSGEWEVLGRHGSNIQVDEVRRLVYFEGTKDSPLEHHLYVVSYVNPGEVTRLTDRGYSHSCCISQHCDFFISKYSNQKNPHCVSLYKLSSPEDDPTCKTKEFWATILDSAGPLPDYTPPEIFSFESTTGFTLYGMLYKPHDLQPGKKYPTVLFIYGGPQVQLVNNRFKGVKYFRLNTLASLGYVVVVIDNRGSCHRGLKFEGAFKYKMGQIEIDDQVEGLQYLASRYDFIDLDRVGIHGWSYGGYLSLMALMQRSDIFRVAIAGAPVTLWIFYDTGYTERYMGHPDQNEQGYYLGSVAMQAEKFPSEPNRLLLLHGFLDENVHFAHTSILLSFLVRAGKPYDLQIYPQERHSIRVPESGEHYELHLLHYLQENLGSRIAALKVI

Dipeptidyl peptidase 9 = Dipeptidyl peptidase 9 (Homo sapiens, UniProt Q86TI2); test: Inhibition of DPP9
Sequence of Dipeptidyl peptidase 9 (Q86TI2 whole entry): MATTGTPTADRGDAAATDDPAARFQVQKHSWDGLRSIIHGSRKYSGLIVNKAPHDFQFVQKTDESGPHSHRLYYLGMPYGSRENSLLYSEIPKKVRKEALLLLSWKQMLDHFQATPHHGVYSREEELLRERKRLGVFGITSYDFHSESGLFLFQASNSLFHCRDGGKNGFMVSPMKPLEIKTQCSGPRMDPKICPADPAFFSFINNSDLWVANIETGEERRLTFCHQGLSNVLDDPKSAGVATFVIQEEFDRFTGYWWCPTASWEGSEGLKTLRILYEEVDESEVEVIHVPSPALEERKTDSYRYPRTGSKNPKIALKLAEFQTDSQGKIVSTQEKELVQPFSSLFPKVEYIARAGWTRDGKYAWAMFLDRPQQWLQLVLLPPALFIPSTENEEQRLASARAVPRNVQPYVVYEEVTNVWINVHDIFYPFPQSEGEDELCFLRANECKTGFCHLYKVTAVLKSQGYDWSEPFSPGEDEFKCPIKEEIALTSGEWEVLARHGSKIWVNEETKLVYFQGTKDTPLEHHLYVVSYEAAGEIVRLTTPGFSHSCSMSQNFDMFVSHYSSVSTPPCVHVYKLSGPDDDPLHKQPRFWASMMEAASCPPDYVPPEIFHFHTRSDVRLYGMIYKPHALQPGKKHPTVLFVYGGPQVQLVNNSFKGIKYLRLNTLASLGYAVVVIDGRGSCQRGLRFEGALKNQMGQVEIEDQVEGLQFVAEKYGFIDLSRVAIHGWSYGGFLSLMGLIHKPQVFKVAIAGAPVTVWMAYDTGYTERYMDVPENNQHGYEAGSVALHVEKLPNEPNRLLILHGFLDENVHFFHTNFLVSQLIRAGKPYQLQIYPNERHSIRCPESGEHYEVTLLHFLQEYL

Sequence of Dipeptidyl peptidase 4 (P27487 whole entry): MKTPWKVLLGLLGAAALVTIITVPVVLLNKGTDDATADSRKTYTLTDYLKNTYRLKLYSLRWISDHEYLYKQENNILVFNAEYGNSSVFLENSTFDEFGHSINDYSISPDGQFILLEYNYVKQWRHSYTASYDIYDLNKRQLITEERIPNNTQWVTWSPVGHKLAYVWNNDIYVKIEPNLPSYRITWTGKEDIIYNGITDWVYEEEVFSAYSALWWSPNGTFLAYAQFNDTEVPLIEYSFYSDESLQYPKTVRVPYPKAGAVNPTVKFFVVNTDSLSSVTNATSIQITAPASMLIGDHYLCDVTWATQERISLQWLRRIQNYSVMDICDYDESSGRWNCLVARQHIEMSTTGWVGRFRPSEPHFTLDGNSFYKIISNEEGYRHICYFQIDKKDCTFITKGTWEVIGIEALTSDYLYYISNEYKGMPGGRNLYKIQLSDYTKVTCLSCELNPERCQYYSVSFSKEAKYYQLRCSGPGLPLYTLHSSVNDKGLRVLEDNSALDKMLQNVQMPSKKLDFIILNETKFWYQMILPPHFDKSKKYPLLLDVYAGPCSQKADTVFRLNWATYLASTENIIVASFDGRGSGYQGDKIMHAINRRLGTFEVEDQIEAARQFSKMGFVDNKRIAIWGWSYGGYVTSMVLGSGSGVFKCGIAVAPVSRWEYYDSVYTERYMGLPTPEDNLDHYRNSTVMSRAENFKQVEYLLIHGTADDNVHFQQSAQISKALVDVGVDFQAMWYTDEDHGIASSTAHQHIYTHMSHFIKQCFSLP

Compound | IC50 (Dipeptidyl peptidase 2) [µM] | IC50 (Dipeptidyl peptidase 4) [nM] | IC50 (Prolyl endopeptidase FAP) [µM] | IC50 (Dipeptidyl peptidase 8) [µM] | IC50 (Dipeptidyl peptidase 9) [µM]
N[C@H](Cc1cc(F)ccc1F)[C@H]1CC[C@H](N2CCn3c(nnc3C(F)(F)F)C2)CC1 | 18 | 330 | > 35 | – | –
N[C@H](C(=O)N1CCSC1)[C@H]1CC[C@H](NC(=O)c2ccc(OC(F)(F)F)cc2)CC1 | – | – | > 35 | – | –
CCN([C@H]1CC[C@H]([C@H](N)Cc2cc(F)ccc2F)CC1)S(=O)(=O)c1c(C)noc1C | 29 | 38 | > 35 | > 100 | –
Cc1noc(C)c1S(=O)(=O)N(Cc1ccccc1)[C@H]1CC[C@H]([C@H](N)Cc2cc(F)ccc2F)CC1 | 10 | 670 | > 35 | > 100 | –
Cc1noc(C)c1S(=O)(=O)N(CCCC(F)(F)F)[C@H]1CC[C@H]([C@H](N)Cc2cc(F)ccc2F)CC1 | 40 | 570 | > 35 | > 100 | > 100
CS(=O)(=O)N(CCCC(F)(F)F)[C@H]1CC[C@H]([C@H](N)Cc2cc(F)ccc2F)CC1 | 86 | 2400 | > 35 | > 100 | > 100
CC(=O)N(C)[C@H]1CC[C@@H]([C@H](N)Cc2cc(F)ccc2F)CC1 | > 100 | 990 | > 35 | – | –
CC(C)C(=O)N(C)[C@H]1CC[C@H]([C@H](N)Cc2cc(F)ccc2F)CC1 | > 100 | 130 | > 35 | > 100 | –
CN(C(=O)C(C)(C)C)[C@H]1CC[C@H]([C@H](N)Cc2cc(F)ccc2F)CC1 | – | – | > 35 | – | –
CN(C(=O)CCN)[C@H]1CC[C@H]([C@H](N)Cc2cc(F)ccc2F)CC1 | > 100 | 730 | > 35 | > 100 | –
CN(C(=O)c1csnn1)[C@H]1CC[C@H]([C@H](N)Cc2cc(F)ccc2F)CC1 | – | – | > 35 | – | –
CN(C(=O)c1ccno1)[C@H]1CC[C@H]([C@H](N)Cc2cc(F)ccc2F)CC1 | 58 | 120 | > 35 | > 100 | –
Cc1noc(C)c1C(=O)N(C)[C@H]1CC[C@H]([C@H](N)Cc2cc(F)ccc2F)CC1 | – | – | > 35 | – | –
Cn1ccc(C(=O)N(C)[C@H]2CC[C@H]([C@H](N)Cc3cc(F)ccc3F)CC2)n1 | 21 | 140 | > 35 | > 100 | –
N[C@H](Cc1cc(F)ccc1F)[C@H]1CC[C@@H](N2CCC(F)(F)C2)CC1 | – | – | > 35 | – | –
N[C@H](Cc1cc(F)ccc1F)[C@H]1CC[C@H](N2CCC(F)(F)C2)CC1 | – | – | > 35 | – | –
N[C@H](Cc1cc(F)ccc1F)[C@H]1CC[C@@H](N2CCn3c(nnc3C(F)(F)F)C2)CC1 | > 100 | 280 | > 35 | – | –
N[C@H](Cc1cc(F)ccc1F)[C@H]1CC[C@@H](N2CCCCC2)CC1 | – | – | > 35 | – | –
N[C@H](Cc1cc(F)ccc1F)[C@H]1CC[C@H](N2CCCCC2)CC1 | – | – | > 35 | – | –
NC(=O)C1CCCN([C@H]2CC[C@@H]([C@H](N)Cc3cc(F)ccc3F)CC2)C1 (stereo not given in full) | – | – | > 35 | – | –

Compound | IC50 (Dipeptidyl peptidase 2) [µM] | IC50 (Dipeptidyl peptidase 4) [nM] | IC50 (Prolyl endopeptidase FAP) [µM] | IC50 (Dipeptidyl peptidase 8) [µM] | IC50 (Dipeptidyl peptidase 9) [µM]
NC(=O)[C@H]1CCCN([C@H]2CC[C@H]([C@H](N)Cc3cc(F)ccc3F)CC2)C1 | – | – | > 35 | – | –
NC(=O)O[C@@H]1CCCN([C@H]2CC[C@H]([C@H](N)Cc3cc(F)ccc3F)CC2)C1 | – | – | > 35 | – | –
N[C@H](Cc1cc(F)ccc1F)[C@H]1CC[C@H](N2CCC[C@@H](O)C2)CC1 | > 100 | 270 | > 35 | – | –
N[C@H](Cc1cc(F)ccc1F)[C@H]1CC[C@H](NCCCC(F)(F)F)CC1 | – | – | > 35 | – | –
CCN(Cc1ccccc1)[C@H]1CC[C@H]([C@H](N)Cc2cc(F)ccc2F)CC1 | – | – | > 35 | – | –
CS(=O)(=O)N1CCC([C@H](N)Cc2cc(F)ccc2F)CC1 | – | – | > 35 | – | –
N[C@H](Cc1cc(F)ccc1F)C1CCN(c2ccccn2)CC1 | – | – | > 35 | – | –
N[C@H](Cc1cc(F)ccc1F)C1CCN(c2cccnc2)CC1 | – | – | > 35 | – | –
N[C@H](Cc1cc(F)ccc1F)C1CCN(c2ccncc2)CC1 | – | – | > 35 | – | –
N#Cc1cncc(N2CCC([C@H](N)Cc3cc(F)ccc3F)CC2)c1 | – | – | > 35 | – | –
N[C@H](Cc1cc(F)ccc1F)C1CCN(c2ccc(F)nc2)CC1 | – | – | > 35 | – | –
CCOC(=O)c1cncc(N2CCC([C@H](N)Cc3cc(F)ccc3F)CC2)c1 | – | – | > 35 | – | –
N[C@H](Cc1cc(F)ccc1F)C1CCN(c2ncccn2)CC1 | – | – | > 35 | – | –
COc1ncc(N2CCC([C@H](N)Cc3cc(F)ccc3F)CC2)cn1 | – | – | > 35 | – | –
N[C@H](Cc1cc(F)ccc1F)C1CCN(c2cnc(=O)[nH]c2)CC1 | – | – | > 35 | – | –
COC(=O)C1CCCC(N2CCC([C@H](N)Cc3cc(F)ccc3F)CC2)C1 (stereo not given in full) | – | – | > 35 | – | –
N[C@H](Cc1cc(F)ccc1F)C1CCN(C2CCCC(C(=O)O)C2)CC1 (stereo not given in full) | – | – | > 35 | – | –
NC(=O)C1CCCC(N2CCC([C@H](N)Cc3cc(F)ccc3F)CC2)C1 (stereo not given in full) | – | – | > 35 | – | –
N[C@H](Cc1cc(F)ccc1F)[C@H]1CC[C@H](N(CCCC(F)(F)F)Cc2ccccc2)CC1 (mixture of isomers) | 23 | 690 | > 35 | > 100 | –
NC(=O)C1CCCN([C@H]2CC[C@H]([C@H](N)Cc3cc(F)ccc3F)CC2)C1 (single isomer, unassigned) | – | – | > 35 | – | –

Second part, the compound after the results:

IC50 (Dipeptidyl peptidase 2) [µM] | IC50 (Dipeptidyl peptidase 4) [nM] | IC50 (Prolyl endopeptidase FAP) [µM] | IC50 (Dipeptidyl peptidase 8) [µM] | IC50 (Dipeptidyl peptidase 9) [µM] | Compound
– | – | > 35 | – | – | CN([C@H]1CC[C@H]([C@H](N)Cc2cc(F)ccc2F)CC1)S(=O)(=O)c1ccccc1
– | – | > 35 | – | – | CN([C@H]1CC[C@H]([C@H](N)Cc2cc(F)ccc2F)CC1)S(=O)(=O)c1ccccc1C(F)(F)F
9.6 | 85 | > 35 | > 69 | – | CN([C@H]1CC[C@H]([C@H](N)Cc2cc(F)ccc2F)CC1)S(=O)(=O)c1cccc(C#N)c1
23 | 180 | > 35 | > 100 | – | CN([C@H]1CC[C@H]([C@H](N)Cc2cc(F)ccc2F)CC1)S(=O)(=O)c1ccc(C#N)cc1
– | – | > 35 | – | – | CN([C@H]1CC[C@H]([C@H](N)Cc2cc(F)ccc2F)CC1)S(=O)(=O)c1ccc(N)cc1
29 | 400 | > 35 | > 100 | > 100 | CN([C@H]1CC[C@H]([C@H](N)Cc2cc(F)ccc2F)CC1)S(=O)(=O)c1ccc(OC(F)(F)F)cc1
– | – | > 35 | – | – | CN([C@H]1CC[C@H]([C@H](N)Cc2cc(F)ccc2F)CC1)S(=O)(=O)c1ccc(C(N)=O)cc1
– | – | > 35 | – | – | CN([C@H]1CC[C@H]([C@H](N)Cc2cc(F)ccc2F)CC1)S(=O)(=O)c1ccc(F)cc1F
– | – | > 35 | – | – | CN([C@H]1CC[C@H]([C@H](N)Cc2cc(F)ccc2F)CC1)S(=O)(=O)c1ccc(-c2cnco2)cc1
57 | 280 | > 35 | – | > 100 | Cc1[nH]ncc1S(=O)(=O)N(C)[C@H]1CC[C@H]([C@H](N)Cc2cc(F)ccc2F)CC1
> 100 | 500 | > 35 | > 100 | > 100 | Cn1cnc(S(=O)(=O)N(C)[C@H]2CC[C@H]([C@H](N)Cc3cc(F)ccc3F)CC2)c1
43 | 170 | > 35 | > 100 | > 100 | Cc1oncc1S(=O)(=O)N(C)[C@H]1CC[C@H]([C@H](N)Cc2cc(F)ccc2F)CC1
– | – | > 35 | – | – | CC(=O)Nc1nc(C)c(S(=O)(=O)N(C)[C@H]2CC[C@H]([C@H](N)Cc3cc(F)ccc3F)CC2)s1
35 | 110 | > 35 | > 100 | – | CN([C@H]1CC[C@H]([C@H](N)Cc2cc(F)ccc2F)CC1)S(=O)(=O)c1cccnc1
68 | 260 | > 35 | > 100 | – | CCN([C@H]1CC[C@H]([C@H](N)Cc2cc(F)ccc2F)CC1)S(C)(=O)=O
11 | 1300 | > 35 | > 100 | – | CS(=O)(=O)N(Cc1ccccc1)[C@H]1CC[C@H]([C@H](N)Cc2cc(F)ccc2F)CC1
58 | 140 | > 35 | > 100 | – | CN(C(=O)c1cccnc1)[C@H]1CC[C@H]([C@H](N)Cc2cc(F)ccc2F)CC1
– | – | > 35 | – | – | CN(C(=O)c1c[nH]c2ccccc12)[C@H]1CC[C@H]([C@H](N)Cc2cc(F)ccc2F)CC1
17 | 110 | > 35 | > 100 | – | CC(=O)N(Cc1ccccc1)[C@H]1CC[C@H]([C@H](N)Cc2cc(F)ccc2F)CC1
12 | 290 | > 35 | > 100 | – | CN(Cc1ccc(C#N)cc1)[C@H]1CC[C@H]([C@H](N)Cc2cc(F)ccc2F)CC1
14 | 220 | > 35 | > 100 | – | CN(Cc1cccc(C#N)c1)[C@H]1CC[C@H]([C@H](N)Cc2cc(F)ccc2F)CC1
